In patent US8115031B2, “Anti-inflammatory quinic acid derivatives for oral administration” (priority 2007, dated 2012):
Where two headings read alike, the source gives them in different places.

How the values were obtained:
[1] = levels of compound after oral (PO) or intravenous (IV) administration; type: in vivo; conditions: PO vs IV, FIG. 12
Description: FIG. 12 is a graph illustrating the levels of analog KZ-41 when provided orally (PO) or by intravenous administration (IV).
Quinic acids are, however, catabolized by enzymes produced by gut bacteria. In rats, less than 10% of an orally-administered dose of quinic acid is recovered. The inventors therefore set out to produce quinic acid derivatives that retain or improve the beneficial effects of quinic acid, while being effective for oral administration. […] The compounds they have synthesized are not catabolized by bacterial enzymes, but are water-soluble, stable at room temperature, and effective for producing anti-inflammatory effects. […] These properties make the compounds attractive options for therapeutic use as anti-inflammatory agents.

[2] = tested on: Gluconobacter oxydans membrane fraction (quinate dehydrogenase); assay: degradation by bacterial enzymes (Gluconobacter oxydans membrane fraction); type: in vitro ADME
Description: FIG. 11 is a graph illustrating the results of an assay to compare stability of analog KZ-41 with that of quinic acid (QA) to degradation by bacterial enzymes. Percentage of drug remaining is shown on the Y-axis and the time exposed to the enzymes is shown on the X-axis. Results for quinic acid are indicated by the diamonds (♦) and results for KZ-41 are indicated by the squares (▪).
Experiments involving Gluconobacter oxydans were performed as described by Adachi et al. (Adachi, O., et al., (2003) Biosci. Biotechnol. Biochem. 67: 2124-2131). […]
Samples were evaporated to dryness at 30° C. and reconstituted with […] of 1:1 (v/v) mixture of 0.5% ammonia in water and acetonitrile. […] The spray needle voltage was set at 5,000 V, with the turbo gas temperature set at 400° C., and the declustering potential set at 60 V. For this study, samples were analyzed using a Q1 scan for product ion identification, a product ion scan for characterization of metabolites or enzymatic products and by using multiple-reaction monitoring (MRM) for quantitation of QA. Quantitation was performed using one set of MRM transitions: parent QA ions (MH^−/191)® selective daughter ions m/z 127. […] The peak areas, peak ratios, linear regression, assayed concentrations, and other quantitative analysis calculations were conducted Sciex Analyst 1.4 software. […]

[3] = tested on: Gluconobacter oxydans membrane fraction (quinate dehydrogenase); conditions: three hours; previous results (Adachi et al. 2003); cited from earlier work
[4] = rats, oral; cited from earlier work
leukocyte populations = conditions: doxorubicin-induced leukopenia, rat; cited from earlier work

## CCCNC(=O)C1(O)CC(O)C(O)C(O)C1 (stereo not drawn) [KZ-41, 1,3,4,5-tetrahydroxy-cyclohexane-carboxylic acid propylamide]
[1]
  levels of compound, oral compared with intravenous (IV) administration: available for absorption into the circulation
[2]; enzymes produced by gut bacteria
  degradation by bacterial enzymes: not degraded

## O=C(O)[C@]1(O)C[C@@H](O)[C@@H](O)[C@H](O)C1 [quinic acid]
[3]
  depletion of QA by G. oxydans membrane fraction: complete depletion
[4]
  orally-administered dose recovered: less than 10%
[2]
  degradation by bacterial enzymes: degraded by enzymes produced by bacteria in the intestines

B1: Neupogen: a granulocyte colony stimulator commonly used to treat chemotherapy-induced leukopenia (protein, chains of the INN, looked up)
chain: MTPLGPASSLPQSFLLKCLEQVRKIQGDGAALQEKLCATYKLCHPEELVLLGHSLGIPWAPLSSCPSQALQLAGCLSQLHSGLFLYQGLLQALEGISPELGPTLDTLQLDVADFATTIWQQMEELGMAPALQPTQGAMPAFASAFQRRAGGVLVASHLQSFLEVSYRVLRHLAQP
Leukocyte populations
  effect on leukocyte populations: increased only the neutrophil fraction
